In general, IC50 refers to the concentration needed to halve the response being measured. Low values mean greater potency in that assay, high ones weaker potency in that assay.

Assay [1] addresses T1, Drosophila RDL (Drosophila melanogaster, UniProt P25123).
T1 construct: expressed in transfected cells; host or cells: Xenopus oocytes (Ecocyte, Austin, TX) microinjected with capped cRNA
T1 sequence (P25123 45-606): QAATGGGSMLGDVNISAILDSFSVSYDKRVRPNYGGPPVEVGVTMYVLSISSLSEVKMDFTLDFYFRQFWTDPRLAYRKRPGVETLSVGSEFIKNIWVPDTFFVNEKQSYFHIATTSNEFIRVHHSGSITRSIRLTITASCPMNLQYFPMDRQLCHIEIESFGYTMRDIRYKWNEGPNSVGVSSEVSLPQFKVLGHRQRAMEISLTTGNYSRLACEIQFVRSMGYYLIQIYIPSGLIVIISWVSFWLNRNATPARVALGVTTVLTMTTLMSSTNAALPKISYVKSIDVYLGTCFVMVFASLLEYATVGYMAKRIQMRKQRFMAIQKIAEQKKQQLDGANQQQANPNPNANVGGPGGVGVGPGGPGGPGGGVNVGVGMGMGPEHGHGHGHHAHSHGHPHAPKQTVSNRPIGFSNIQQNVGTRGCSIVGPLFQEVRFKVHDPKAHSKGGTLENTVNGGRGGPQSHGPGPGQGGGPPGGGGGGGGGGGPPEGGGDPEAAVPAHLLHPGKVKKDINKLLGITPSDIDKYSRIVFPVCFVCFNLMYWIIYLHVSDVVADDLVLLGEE
Nature of the assay: RDL receptors assay: two-electrode voltage clamp electrophysiology in Xenopus oocytes. The class given is cell-based. Here is the method:
5. RDL receptors binding assay
The Drosophila RDL sequence (NP_01261616.1) was cloned into the pGH19 backbone via Gibson assembly for capped cRNA synthesis using the T7 mMessage mMachine kit (Invitrogen). cRNA samples were stored at - 80 °C until use. Ready to inject Xenopus oocytes were obtained from Ecocyte (Austin, TX) and microinjected using a Nanoinject III (Drummond Scientific) with 4 nL of cRNA (1 μg/μL). The oocytes were then incubated at 16 °C in ND96 storage solution (93.5 mM NaCl, 2 mM KCl, 1.8 mM CaCl 2·2H2O, 2 mM MgCl 2·6H2O, 5 mM HEPES at pH 7.5). Recording were made 1 -6 days post injection.
Electrophysiology experiments were performed using an automated two -electrode voltage clamp set -up (Roboocyte 2, Mutlichannel Systems). Recording head were filled with 3M KCl and gave resistan ce of 100-2000 kΩ in medium. Membrane potential was held at -60 mV and current signal was sampled at 20 kHz.
Experiments were performed at room temperature using Modified Barth’s Saline (MBS) (88 mM NaCl, 1 mM KCl, 2.4 mM NaHCO 3, 15 mM HEPES, 0.3 mM Ca(NO3)2, 0.41 mM CaCl 2, and 0.82 mM MgSO 4·7H2O at pH 7.4). Oocytes were perfused with MBS at 5 mL/min in all assays. GABA and all compounds were dissolved in MBS and a 0.1% DMSO negative control was utilized to correct for any solvent effect.
Initial block potential of each compound was assessed utilizing a pre -incubation method (MBS (30 sec), 10 μM GABA (15 sec), MBS wash (60 sec), compound (60 sec), compound + 10 μM GABA (15 sec), compound (60 sec), compound + 10 μM GABA (15 sec), MBS wash (60 sec) with 10 μM of each test compound. The maximum signal of the second co -application was compared to the initial GABA response to determine the % block and then standardized against the corresponding value of the 0.1% DMSO control. Dose responses were performed for any compound showing >50% block in the initial test using 10, 1, and 0.1 μM. The IC50 values were fit using an inhibitor vs response 4 -parameter fit (GraphPad Prism 8.1.2).
Supplementary Table 9. IC50 values of test compound
(§1) Compound IC50 (µM) Compound IC50 (µΜ)

Assay [2] relates to rat GABAA ion channel. The assay is described as follows: Non-selective rat GABAA ion channel [3H]TBOB binding (antagonist radioligand) assay, rat cerebral cortex. The conditions noted are these: for IC50: [3H]TBOB displacement, n = 1. The method, then: The structurally privileged 5-methyl series was assayed for binding to both GABAA receptors (rat cortex membrane preparations) and RDL (expressed in Xenopus oocytes) and compared directly to the parent PXN (C5-H) series. The parallel series of PXN and 5MePXN analogs allowed us to interrogate the effect of the synthetically-enabling and stabilizing C5 methyl. […]
4. Rat GABAA receptors binding assay
Non-selective rat GABAA ion channel [3H] TBOB binding (Antagonist Radioligand) assay was conducted by Eurofins Pharma Discovery Service of Eurofins Cerep, France.
Compound binding was calculated as a % inhibition of the binding of the radioactive ly labeled ligand [3H] TBOB (t‐[3H]Butylbicycloorthobenzoate) for rat GABAA ion channels.9 A 20.0 mM stock solution was prepared in DMSO from each test compound to evaluate radioligand displacement of [3H] TBOB from rat cerebral cortex GABAA receptors at different concentrations.
The results are expressed as a percent of control specific binding measured specific binding*100 […]
and as a percent inhibition of control specific binding
100 − (measured specific binding*100) […]
obtained in the presence of the test compounds.
The IC50 values (concentration causing a half -maximal inhibition of control specific binding) and Hill coefficients (nH) were determined by non -linear regression analysis of th e competition curves generated with mean replicate values using Hill equation curve fitting […]
where Y = specific binding, A = left asymptote of the curve, D = right asymptote of the curve , C = compound concentration, C 50 = IC50, and nH = slope factor. This analysis was performed using software developed at Cerep (Hill software) and validated by comparison with data generated by th e commercial software SigmaPlot® 4.0 for Windows ® (© 1997 by SPSS Inc.).
The inhibition constants (K i) were calculated using the Cheng Prusoff equation where L = concentration of radioligand in the assay, and KD = affinity of the radioligand for the recept or. A scatchard plot is used to determine the K D.
Supplementary Table 8. IC50 values of test compound
as §1

As to `C=C(C)C1C2OC(=O)C1(C)C1(O)CC3OC34C(=O)OC2C41C` (centres unmarked) [5MePXN, 5-methylpicrotoxinin], the concentration for half-maximal inhibition (IC50) in assay [1] is 1710 nM; in assay [2] (Supplementary Table 8 (5MePXN series)) it was 1800 nM. Also, the “loss in potency from PXN” value in assay [2] ([3H]TBOB binding) is 10 fold.
As for `C=C(C)[C@@H]1[C@H]2OC(=O)[C@@H]1[C@]1(O)C[C@H]3O[C@]34C(=O)O[C@H]2[C@]14C` [PXN, picrotoxinin], the figures for the 50% inhibitory concentration (IC50) in assay [1] and in assay [2] (Supplementary Table 8 (PXN series)) were 800 nM and 210 nM, respectively.

Source of the values: PMC10721898, “C5 methylation confers accessibility, stability and selectivity to picrotoxinin” (Nature Communications, 2023).
